Results: ChEMBL document CHEMBL4130627, “Prodrugs of the Phosphoribosylated Forms of Hydroxypyrazinecarboxamide Pseudobase T-705 and Its De-Fluoro Analogue T-1105 as Potent Influenza Virus Inhibitors” (J Med Chem, 2018)

Key:
Test in all cases: microbe, parasite or virus in culture
Influenza B virus [1] = conditions: Ned/537/05, MDCK, 72 h
Influenza A virus [2] = conditions: MDCK, 72 h
Influenza A virus [3] = conditions: MDCK, 72 h; remark: listed apart in the source
Influenza B virus [4] = conditions: Ned/537/05, MDCK, 72 h; remark: listed apart in the source

For `CCCCCCCCCCCCCCC(=O)Oc1ccc(COP(=O)(OCc2ccc(OC(=O)CCCC)cc2)OP(=O)(O)OC[C@H]2O[C@@H](n3cc(F)nc(C(N)=O)c3=O)[C@H](O)[C@@H]2O)cc1.CCN(CC)CC` (stereo partly specified), the EC50 (Influenza B virus [1]) was 2.8 µM, the EC50 (Influenza A virus [2]) was 8.8 µM and the EC50 (Influenza A virus [3]) was 6.6 µM. The EC50 (Influenza B virus [4]) was 3.4 µM.
Compound `CCCCCCCCCCCCCCC(=O)Oc1ccc(COP(=O)(OCc2ccc(OC(=O)CCCC)cc2)OP(=O)(O)OP(=O)(O)OC[C@H]2O[C@@H](n3ccnc(C(N)=O)c3=O)[C@H](O)[C@@H]2O)cc1.CCN(CC)CC.CCN(CC)CC` (stereo partly specified) has an EC50 (Influenza B virus [1]) of 1.5 µM, an EC50 (Influenza A virus [2]) of 5.4 µM and an EC50 (Influenza A virus [3]) of 5.6 µM. For the same compound, the EC50 (Influenza B virus [4]) was 2.6 µM.
`CC(=O)O[C@@H]1[C@H](OC(C)=O)[C@@H](COP2(=O)OCc3cccc(C)c3O2)O[C@H]1n1ccnc(C(N)=O)c1=O` (stereo partly specified) showed an EC50 (Influenza B virus [1]) of 177 µM, an EC50 (Influenza A virus [2]) of over 400 µM and an EC50 (Influenza A virus [3]) of over 400 µM. The EC50 (Influenza B virus [4]) was over 400 µM.
Compound `CCCCCCCCCC(=O)Oc1ccc(COP(=O)(OCc2ccc(OC(=O)CCCCCCCCC)cc2)OP(=O)(O)OP(=O)(O)OC[C@H]2O[C@@H](n3ccnc(C(N)=O)c3=O)[C@H](O)[C@@H]2O)cc1.CCN(CC)CC.CCN(CC)CC` has an EC50 (Influenza B virus [1]) of 1 µM, an EC50 (Influenza A virus [2]) of 4.5 µM and an EC50 (Influenza A virus [3]) of 2.6 µM. It also gave an EC50 (Influenza B virus [4]) of 1.9 µM.
`Cc1cccc2c1OP(=O)(OC[C@H]1O[C@@H](n3ccnc(C(N)=O)c3=O)[C@H](O)[C@@H]1O)OC2` (stereo partly specified) showed an EC50 (Influenza B virus [1]) of 106 µM, an EC50 (Influenza A virus [2]) of 368 µM and an EC50 (Influenza A virus [3]) of 256 µM. It also gave an EC50 (Influenza B virus [4]) of 200 µM.
`NC(=O)c1nc(F)cnc1O` showed an EC50 (Influenza B virus [1]) of over 250 µM, an EC50 (Influenza A virus [2]) of over 250 µM and an EC50 (Influenza A virus [3]) of over 250 µM. For the same compound, the EC50 (Influenza B virus [4]) was over 250 µM.
Compound `NC(=O)c1nc(Br)cn([C@@H]2O[C@H](CO)[C@@H](O)[C@H]2O)c1=O` has an EC50 (Influenza B virus [1]) of 170 µM, an EC50 (Influenza A virus [2]) of over 250 µM and an EC50 (Influenza A virus [3]) of over 250 µM. It also gave an EC50 (Influenza B virus [4]) of over 250 µM.
Compound `CCCCCCCCCC(=O)Oc1ccc(COP(=O)(OCc2ccc(OC(=O)CCCCCCCCC)cc2)OP(=O)(O)OC[C@H]2O[C@@H](n3ccnc(C(N)=O)c3=O)[C@H](O)[C@@H]2O)cc1.CCN(CC)CC` has an EC50 (Influenza B virus [1]) of 0.39 µM, an EC50 (Influenza A virus [2]) of 0.97 µM and an EC50 (Influenza A virus [3]) of 1.3 µM. For the same compound, the EC50 (Influenza B virus [4]) was 0.55 µM.
Compound `CCCCCCCCCCCCCCC(=O)Oc1ccc(COP(=O)(OCc2ccc(OC(=O)CCCC)cc2)OP(=O)(O)OC[C@H]2O[C@@H](n3ccnc(C(N)=O)c3=O)[C@H](O)[C@@H]2O)cc1.CCN(CC)CC` (stereo partly specified) has an EC50 (Influenza B virus [1]) of 0.53 µM, an EC50 (Influenza A virus [2]) of 1.4 µM and an EC50 (Influenza A virus [3]) of 1.5 µM. For the same compound, the EC50 (Influenza B virus [4]) was 0.66 µM.
Compound `NC(=O)c1ncn([C@@H]2O[C@H](CO)[C@@H](O)[C@H]2O)n1` [RIBAVIRIN] has an EC50 (Influenza B virus [1]) of 1.5 µM, an EC50 (Influenza A virus [2]) of 5.8 µM and an EC50 (Influenza A virus [3]) of 5 µM.
`NC(=O)c1nccnc1O` showed an EC50 (Influenza B virus [1]) of over 250 µM, an EC50 (Influenza A virus [2]) of over 250 µM and an EC50 (Influenza A virus [3]) of over 250 µM. The EC50 (Influenza B virus [4]) was over 250 µM.
In the case of `NC(=O)c1nccn([C@@H]2O[C@H](CO)[C@@H](O)[C@H]2O)c1=O`, the EC50 (Influenza B virus [1]) is reported as 19 µM, the EC50 (Influenza A virus [2]) is reported as 51 µM and the EC50 (Influenza A virus [3]) is reported as 53 µM. It also gave an EC50 (Influenza B virus [4]) of 20 µM.
`NC(=O)c1nc(Br)cnc1O` was tested, and the EC50 (Influenza B virus [1]) was 63 µM, the EC50 (Influenza A virus [2]) was over 250 µM and the EC50 (Influenza A virus [3]) was over 250 µM. The EC50 (Influenza B virus [4]) was over 250 µM.
